Laboratory results taken from ChEMBL document CHEMBL1201862, “PubChem BioAssay data set” (2004).
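96-well plates; 48 h exposure; 5 concentrations. Endpoints by linear interpolation between flanking doses. Not reached: highest tested concentration assigned. GI50 is the concentration that inhibits growth by half.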 Calls of active or inactive are those of the source. Rule as the data show it: active = GI50 up to about 1.1 µM and inactive = higher.

Key:
Assay in all cases: NCI-60 cell line screen, 48 h
[1] = test system: U-251
[2] = test system: UO-31
[3] = test system: MOLT-4
[4] = test system: OVCAR-5
[5] = test system: SF-295
[6] = test system: SK-MEL-2
[7] = test system: UACC-257
[8] = test system: KM12
[9] = test system: MCF7
[10] = test system: IGROV-1
[11] = test system: SW-620
[12] = test system: SR
[13] = test system: 786-0
[14] = test system: ACHN
[15] = test system: NCI-H226
[16] = test system: MDA-MB-231
[17] = test system: A549
[18] = test system: M14
[19] = test system: HT-29
[20] = test system: T47D

SMILES | GI50 [1] | GI50 [2] | GI50 [3] | GI50 [4] | GI50 [5] | GI50 [6] | GI50 [7] | GI50 [8] | GI50 [9] | GI50 [10] | GI50 [11] | GI50 [12] | GI50 [13] | GI50 [14] | GI50 [15] | GI50 [16] | GI50 [17] | GI50 [18] | GI50 [19] | GI50 [20]
COC(=O)CC1(CNC(=O)OCc2ccccc2)OCCO1 | > 100 µM (inactive) | > 100 µM (inactive) | > 100 µM (inactive) | > 100 µM (inactive) | > 100 µM (inactive) | > 100 µM (inactive) | > 100 µM (inactive) | > 100 µM (inactive) | > 100 µM (inactive) | > 100 µM (inactive) | > 100 µM (inactive) | > 100 µM (inactive) | > 100 µM (inactive) | > 100 µM (inactive) | > 100 µM (inactive) | > 100 µM (inactive) | > 100 µM (inactive) | > 100 µM (inactive) |  | 
N#C/N=C(/N)NCN/C(N)=N\C#N | > 100 µM (inactive) | > 100 µM (inactive) | > 100 µM (inactive) | > 100 µM (inactive) | > 100 µM (inactive) | > 100 µM (inactive) | > 100 µM (inactive) | > 100 µM (inactive) |  | > 100 µM (inactive) | 17.4 µM (inactive) | 27.1 µM (inactive) | 23.1 µM (inactive) | > 100 µM (inactive) | > 100 µM (inactive) |  | > 100 µM (inactive) | > 100 µM (inactive) | > 100 µM (inactive) | 
c1ccc2c(c1)cc1n2CC2CN=NC12 (stereo unspecified) | > 100 µM (inactive) | > 100 µM (inactive) | > 100 µM (inactive) | > 100 µM (inactive) | > 100 µM (inactive) | > 100 µM (inactive) | > 100 µM (inactive) | > 100 µM (inactive) |  | > 100 µM (inactive) | > 100 µM (inactive) | > 100 µM (inactive) | > 100 µM (inactive) | > 100 µM (inactive) | > 100 µM (inactive) |  | > 100 µM (inactive) | > 100 µM (inactive) | > 100 µM (inactive) | 
COc1ccc(-n2cnn3c(=O)c4cn[nH]c4nc23)cc1 | > 10 µM (inactive) | > 10 µM (inactive) | > 10 µM (inactive) | > 10 µM (inactive) | > 10 µM (inactive) |  | > 10 µM (inactive) | > 10 µM (inactive) | > 10 µM (inactive) |  |  | > 10 µM (inactive) | > 10 µM (inactive) | > 10 µM (inactive) | > 10 µM (inactive) | 0.00724 µM (active) | > 10 µM (inactive) | > 10 µM (inactive) | > 10 µM (inactive) | 
N#Cc1c(O)c(/N=N/c2ccccc2F)c(=O)n2c1[nH]c1ccccc12 | 32.7 µM (inactive) | 29.3 µM (inactive) |  | 34 µM (inactive) | 33 µM (inactive) | 20.9 µM (inactive) | 33.9 µM (inactive) |  | 32.7 µM (inactive) | 74.8 µM (inactive) | 63.2 µM (inactive) |  | 43.7 µM (inactive) | 34 µM (inactive) | 33.7 µM (inactive) | 22.2 µM (inactive) | 42.5 µM (inactive) | 22.4 µM (inactive) | 23.3 µM (inactive) | 
COc1cccc(C2CC23C(=O)NC(=O)NC3=O)c1 (stereo unspecified) | > 100 µM (inactive) | > 100 µM (inactive) | > 100 µM (inactive) | > 100 µM (inactive) | > 100 µM (inactive) | > 100 µM (inactive) | > 100 µM (inactive) | > 100 µM (inactive) |  | > 100 µM (inactive) | > 100 µM (inactive) | > 100 µM (inactive) | > 100 µM (inactive) | > 100 µM (inactive) | > 100 µM (inactive) |  | > 100 µM (inactive) | > 100 µM (inactive) | > 100 µM (inactive) | 
Nc1nc(SCCC/C=C/I)nc2c1ncn2C1OC(CO)C(O)C1O (stereo unspecified) | > 202 µM (inactive) | > 202 µM (inactive) | 99.5 µM (inactive) | > 202 µM (inactive) | > 202 µM (inactive) | > 202 µM (inactive) | > 202 µM (inactive) | > 202 µM (inactive) |  | > 202 µM (inactive) | > 202 µM (inactive) | > 202 µM (inactive) | > 202 µM (inactive) | > 202 µM (inactive) | > 202 µM (inactive) |  | > 202 µM (inactive) | > 202 µM (inactive) | > 202 µM (inactive) | 
Cc1nc(Nc2ccc(Cl)cc2)sc1C(=O)Nc1cccc2c(=O)[nH][nH]c(=O)c12 | 34.3 µM (inactive) | 31.8 µM (inactive) | 19 µM (inactive) | 36.9 µM (inactive) | 24.7 µM (inactive) | 30.4 µM (inactive) | 96.8 µM (inactive) | 51.8 µM (inactive) |  | 25.2 µM (inactive) | 25.5 µM (inactive) | 21 µM (inactive) | 19 µM (inactive) | 20.9 µM (inactive) | 83.6 µM (inactive) |  | 33.1 µM (inactive) | 17.6 µM (inactive) | 16.8 µM (inactive) | 
O=C1CCC2(c3ccc(F)cc3)Nc3ncncc3N12 (stereo unspecified) | > 10 µM (inactive) | > 10 µM (inactive) | > 10 µM (inactive) | > 10 µM (inactive) | > 10 µM (inactive) | > 10 µM (inactive) | > 10 µM (inactive) | > 10 µM (inactive) | 2.32 µM (inactive) | > 10 µM (inactive) | > 10 µM (inactive) | > 10 µM (inactive) | > 10 µM (inactive) | > 10 µM (inactive) | > 10 µM (inactive) |  | > 10 µM (inactive) | > 10 µM (inactive) | > 10 µM (inactive) | 
O=C(O)CCCCCO | > 100 µM (inactive) | > 100 µM (inactive) | > 100 µM (inactive) | > 100 µM (inactive) | > 100 µM (inactive) | > 100 µM (inactive) | > 100 µM (inactive) | > 100 µM (inactive) |  | > 100 µM (inactive) | > 100 µM (inactive) | > 100 µM (inactive) | > 100 µM (inactive) | > 100 µM (inactive) | > 100 µM (inactive) |  | > 100 µM (inactive) | > 100 µM (inactive) | > 100 µM (inactive) | 
CCOC(=O)C(NC(=O)Nc1ccc(Cl)cc1)(OC)C(F)(F)F (stereo unspecified) | 52.5 µM (inactive) | 5.75 µM (inactive) |  | 21.5 µM (inactive) |  | 0.973 µM (active) | 21.9 µM (inactive) |  |  | > 100 µM (inactive) | 64.4 µM (inactive) | 9.23 µM (inactive) | 13.8 µM (inactive) | 0.757 µM (active) |  |  | 8.49 µM (inactive) | 8.24 µM (inactive) | > 100 µM (inactive) | 70 µM (inactive)
CCOC(=O)/C(=C/c1cccc(Cl)c1)N(CC)CC | 43.3 µM (inactive) | 37.1 µM (inactive) | 87.7 µM (inactive) | > 100 µM (inactive) | 46.3 µM (inactive) | 29.6 µM (inactive) | 55.8 µM (inactive) | 39.1 µM (inactive) |  | 49.4 µM (inactive) | 59 µM (inactive) | > 100 µM (inactive) | 67.9 µM (inactive) | 35.5 µM (inactive) | 37.8 µM (inactive) |  | 36.2 µM (inactive) | 64.3 µM (inactive) | > 100 µM (inactive) | 
